≈ marks a conversion by molar mass, not a printed value.
Legend:
[1] = test system: Staphylococcus aureus S13E; format: cell-based
Description: (§1) The MIC's were determined using a standard broth micro-dilution assay.

[2] = test system: Staphylococcus aureus SA1199B; format: cell-based
Description: as §1

[3] = test system: Entercoccus faecium 180-1; experiment: broth micro-dilution MIC; format: cell-based
Description: as §1

[4] = test system: Entercoccus faecium 276; experiment: broth micro-dilution MIC; format: cell-based
Description: as §1

[5] = test system: Staphylococcus aureus 446; experiment: broth micro-dilution MIC; format: cell-based
Description: as §1

[6] = test system: Staphylococcus aureus 447; experiment: broth micro-dilution MIC; format: cell-based
Description: as §1

[7] = test system: Staphylococcus aureus 489; experiment: broth micro-dilution MIC; format: cell-based
Description: as §1

[8] = test system: Staphylococcus aureus 491; experiment: broth micro-dilution MIC; format: cell-based
Description: as §1

[9] = test system: Staphylococcus aureus SA1199A; experiment: broth micro-dilution MIC; format: cell-based
Description: as §1

[10] = test system: Staphylococcus aureus SA1199; experiment: broth micro-dilution MIC; format: cell-based
Description: as §1

[11] = test system: Staphylococcus aureus X400; experiment: broth micro-dilution MIC; format: cell-based
Description: as §1

[12] = test system: Staphylococcus aureus X778; experiment: broth micro-dilution MIC; format: cell-based
Description: as §1

[13] = test system: Streptococcus pyogenes C203; experiment: broth micro-dilution MIC; format: cell-based
Description: as §1

[14] = test system: Entercoccus faecium 180; experiment: broth micro-dilution MIC; format: cell-based; conditions: Entercoccus faecium 180
Description: (§2) The formula I compounds have in vitro and in vivo activity against Gram-positive pathogenic bacteria. The MIC's were determined using a standard broth micro-dilution assay.

[15] = test system: Entercoccus faecium 2041; experiment: broth micro-dilution MIC; format: cell-based; conditions: Entercoccus faecium 2041
Description: as §2

[16] = test system: Enterococcus gallinarum 245; experiment: broth micro-dilution MIC; format: cell-based; conditions: Enterococcus gallinarum 245
Description: as §2

[17] = test system: Escherichia coli EC14; experiment: broth micro-dilution MIC; format: cell-based
Description: as §2

[18] = test system: Haemophilus influenzae RD; experiment: broth micro-dilution MIC; format: cell-based; conditions: Haemophilus influenzae RD
Description: as §2

[19] = test system: Staphylococcus epidermidis 270; experiment: broth micro-dilution MIC; format: cell-based
Description: as §2

[20] = test system: Staphylococcus haemolyticus 105; experiment: broth micro-dilution MIC; format: cell-based
Description: as §2

[21] = test system: Staphylococcus haemolyticus 415; experiment: broth micro-dilution MIC; format: cell-based
Description: as §2

[22] = test system: Streptococcus pneumoniae P1; experiment: broth micro-dilution MIC; format: cell-based
Description: as §2

[23] = test system: vancomycin-resistant enterococci; experiment: broth micro-dilution, mean geometric MIC; format: cell-based, Enterococcus faecium and Enterococcus faecalis; conditions: enterococci, 24-hour incubation
[24] = test system: vancomycin-susceptible enterococci; experiment: broth micro-dilution, mean geometric MIC; format: cell-based, Enterococcus faecium and Enterococcus faecalis; conditions: enterococci, 24-hour incubation

Compound	MIC [1] [µg/mL]	MIC [2] [µg/mL]	MIC [3] [µg/mL]	MIC [4] [µg/mL]	MIC [5] [µg/mL]	MIC [6] [µg/mL]	MIC [7] [µg/mL]	MIC [8] [µg/mL]	MIC [9] [µg/mL]	MIC [10] [µg/mL]	MIC [11] [µg/mL]	MIC [12] [µg/mL]	MIC [13] [µg/mL]	MIC [14] [µg/mL]	MIC [15] [µg/mL]	MIC [16] [µg/mL]	MIC [17] [µg/mL]	MIC [18] [µg/mL]	MIC [19] [µg/mL]	MIC [20] [µg/mL]	other results
CC(C)CC(C(=O)NC1C(=O)NC(CC(N)=O)C(=O)NC2C(=O)NC3C(=O)NC(C(=O)NC(C(=O)O)c4cc(O)cc(O)c4-c4cc3ccc4O)C(OC3CC(C)(N)C(O)C(C)O3)c3ccc(c(Cl)c3)Oc3cc2cc(c3OC2OC(CO)C(O)C(O)C2OC2CC(C)(NCc3ccc4c(c3)CCCC4)C(O)C(C)O2)Oc2ccc(cc2Cl)C1O)N(C)Cc1ccc2c(c1)CCCC2 (stereo not drawn) [Compound 258]	2 (≈ 1.06 µM)	0.25 (≈ 0.133 µM)	4 (≈ 2.13 µM)	1 (≈ 0.532 µM)	1 (≈ 0.532 µM)	1 (≈ 0.532 µM)	1 (≈ 0.532 µM)	1 (≈ 0.532 µM)	2 (≈ 1.06 µM)	2 (≈ 1.06 µM)	2 (≈ 1.06 µM)	1 (≈ 0.532 µM)	≤ 0.06	1 (≈ 0.532 µM)	0.5 (≈ 0.266 µM)	1 (≈ 0.532 µM)	> 64	> 64	2 (≈ 1.06 µM)	1 (≈ 0.532 µM)	MIC [21]: 2 µg/mL (≈ 1.06 µM); MIC [22]: ≤ 0.06 µg/mL; mean geometric MIC, Vancomycin Resistant Strains [23]: 8 µg/mL; mean geometric MIC, Vancomycin Sensitive Strains [24]: 1 µg/mL
CC(C)CC(C(=O)NC1C(=O)NC(CC(N)=O)C(=O)NC2C(=O)NC3C(=O)NC(C(=O)NC(C(=O)O)c4cc(O)cc(O)c4-c4cc3ccc4O)C(OC3CC(C)(N)C(O)C(C)O3)c3ccc(c(Cl)c3)Oc3cc2cc(c3OC2OC(CO)C(O)C(O)C2OC2CC(C)(NCc3ccc(N(C)c4ccccc4)cc3)C(O)C(C)O2)Oc2ccc(cc2Cl)C1O)N(C)Cc1ccc(N(C)c2ccccc2)cc1 (stereo not drawn) [Compound 260]	4 (≈ 2.02 µM)	2 (≈ 1.01 µM)	0.25 (≈ 0.126 µM)	2 (≈ 1.01 µM)	2 (≈ 1.01 µM)	4 (≈ 2.02 µM)	2 (≈ 1.01 µM)	1 (≈ 0.504 µM)	0.5 (≈ 0.252 µM)	2 (≈ 1.01 µM)	4 (≈ 2.02 µM)	1 (≈ 0.504 µM)	≤ 0.06	0.5 (≈ 0.252 µM)	1 (≈ 0.504 µM)	0.25 (≈ 0.126 µM)	> 64	> 64	1 (≈ 0.504 µM)	1 (≈ 0.504 µM)	MIC [21]: 2 µg/mL (≈ 1.01 µM); MIC [22]: ≤ 0.06 µg/mL; mean geometric MIC, Vancomycin Resistant Strains [23]: 4.8 µg/mL; mean geometric MIC, Vancomycin Sensitive Strains [24]: 1.1 µg/mL
CC(C)CC(C(=O)NC1C(=O)NC(CC(N)=O)C(=O)NC2C(=O)NC3C(=O)NC(C(=O)NC(C(=O)O)c4cc(O)cc(O)c4-c4cc3ccc4O)C(OC3CC(C)(N)C(O)C(C)O3)c3ccc(c(Cl)c3)Oc3cc2cc(c3OC2OC(CO)C(O)C(O)C2OC2CC(C)(NCc3c4c(cc5ccccc35)CCCC4)C(O)C(C)O2)Oc2ccc(cc2Cl)C1O)N(C)Cc1c2c(cc3ccccc13)CCCC2 (stereo not drawn) [Compound 262]	1 (≈ 0.505 µM)	0.5 (≈ 0.252 µM)	≤ 0.06	2 (≈ 1.01 µM)	2 (≈ 1.01 µM)	1 (≈ 0.505 µM)	1 (≈ 0.505 µM)	1 (≈ 0.505 µM)	≤ 0.06	0.5 (≈ 0.252 µM)	2 (≈ 1.01 µM)	1 (≈ 0.505 µM)	≤ 0.06	1 (≈ 0.505 µM)	0.5 (≈ 0.252 µM)	2 (≈ 1.01 µM)	> 64	> 64	1 (≈ 0.505 µM)	4 (≈ 2.02 µM)	MIC [21]: 2 µg/mL (≈ 1.01 µM); MIC [22]: ≤ 0.06 µg/mL; mean geometric MIC, Vancomycin Resistant Strains [23]: 5.7 µg/mL; mean geometric MIC, Vancomycin Sensitive Strains [24]: 0.17 µg/mL
CNC(CC(C)C)C(=O)NC1C(=O)NC(CC(N)=O)C(=O)NC2C(=O)NC3C(=O)NC(C(=O)NC(C(=O)O)c4cc(O)cc(O)c4-c4cc3ccc4O)C(OC3CC(C)(NCc4ccc(-c5ccc([N+](=O)[O-])cc5)cc4)C(O)C(C)O3)c3ccc(c(Cl)c3)Oc3cc2cc(c3OC2OC(CO)C(O)C(O)C2OC2CC(C)(NCc3ccc(-c4ccc([N+](=O)[O-])cc4)cc3)C(O)C(C)O2)Oc2ccc(cc2Cl)C1O (stereo not drawn) [Compound 263]	1 (≈ 0.496 µM)	1 (≈ 0.496 µM)	≤ 0.06	0.5 (≈ 0.248 µM)	1 (≈ 0.496 µM)	2 (≈ 0.993 µM)	0.25 (≈ 0.124 µM)	1 (≈ 0.496 µM)	≤ 0.06	1 (≈ 0.496 µM)	0.5 (≈ 0.248 µM)	0.5 (≈ 0.248 µM)	≤ 0.06	≤ 0.06	≤ 0.06	8 (≈ 3.97 µM)	65 (≈ 32.3 µM)	> 64	4 (≈ 1.99 µM)	16 (≈ 7.94 µM)	MIC [21]: 8 µg/mL (≈ 3.97 µM); MIC [22]: ≤ 0.06 µg/mL; mean geometric MIC, Vancomycin Resistant Strains [23]: 1.7 µg/mL; mean geometric MIC, Vancomycin Sensitive Strains [24]: 0.29 µg/mL
CC(C)CC(C(=O)NC1C(=O)NC(CC(N)=O)C(=O)NC2C(=O)NC3C(=O)NC(C(=O)NC(C(=O)O)c4cc(O)cc(O)c4-c4cc3ccc4O)C(OC3CC(C)(N)C(O)C(C)O3)c3ccc(c(Cl)c3)Oc3cc2cc(c3OC2OC(CO)C(O)C(O)C2OC2CC(C)(NCc3ccc4c(c3)OCO4)C(O)C(C)O2)Oc2ccc(cc2Cl)C1O)N(C)Cc1ccc2c(c1)OCO2 (stereo not drawn) [Compound 265]	0.5 (≈ 0.269 µM)	0.5 (≈ 0.269 µM)	≤ 0.06	0.5 (≈ 0.269 µM)	2 (≈ 1.07 µM)	2 (≈ 1.07 µM)	0.5 (≈ 0.269 µM)	2 (≈ 1.07 µM)	≤ 0.06	2 (≈ 1.07 µM)	0.5 (≈ 0.269 µM)	0.5 (≈ 0.269 µM)	≤ 0.06	8 (≈ 4.3 µM)	0.25 (≈ 0.134 µM)	1 (≈ 0.537 µM)	> 64	> 64	4 (≈ 2.15 µM)	8 (≈ 4.3 µM)	MIC [21]: 1 µg/mL (≈ 0.537 µM); MIC [22]: ≤ 0.06 µg/mL; mean geometric MIC, Vancomycin Resistant Strains [23]: 54 µg/mL; mean geometric MIC, Vancomycin Sensitive Strains [24]: 0.87 µg/mL
CC(C)CC(C(=O)NC1C(=O)NC(CC(N)=O)C(=O)NC2C(=O)NC3C(=O)NC(C(=O)NC(C(=O)O)c4cc(O)cc(O)c4-c4cc3ccc4O)C(OC3CC(C)(N)C(O)C(C)O3)c3ccc(c(Cl)c3)Oc3cc2cc(c3OC2OC(CO)C(O)C(O)C2OC2CC(C)(NCc3ccc(Oc4ccc([N+](=O)[O-])cc4)cc3)C(O)C(C)O2)Oc2ccc(cc2Cl)C1O)N(C)Cc1ccc(Oc2ccc([N+](=O)[O-])cc2)cc1 (stereo not drawn) [Compound 267]	1 (≈ 0.489 µM)	1 (≈ 0.489 µM)	0.125 (≈ 0.0611 µM)	1 (≈ 0.489 µM)	0.5 (≈ 0.244 µM)	0.5 (≈ 0.244 µM)	0.25 (≈ 0.122 µM)	1 (≈ 0.489 µM)	≤ 0.06	2 (≈ 0.977 µM)	0.5 (≈ 0.244 µM)	1 (≈ 0.489 µM)	≤ 0.06	0.25 (≈ 0.122 µM)	0.25 (≈ 0.122 µM)	4 (≈ 1.95 µM)	> 64	> 64	4 (≈ 1.95 µM)	16 (≈ 7.82 µM)	MIC [21]: 4 µg/mL (≈ 1.95 µM); MIC [22]: ≤ 0.06 µg/mL; mean geometric MIC, Vancomycin Resistant Strains [23]: 2.8 µg/mL; mean geometric MIC, Vancomycin Sensitive Strains [24]: 0.22 µg/mL
COc1cc(CNC2(C)CC(OC3C(Oc4c5cc6cc4Oc4ccc(cc4Cl)C(OC4CC(C)(N)C(O)C(C)O4)C4NC(=O)C(NC(=O)C6NC(=O)C(CC(N)=O)NC(=O)C(NC(=O)C(CC(C)C)N(C)Cc6ccc(OCc7ccccc7)c(OC)c6)C(O)c6ccc(c(Cl)c6)O5)c5ccc(O)c(c5)-c5c(O)cc(O)cc5C(C(=O)O)NC4=O)OC(CO)C(O)C3O)OC(C)C2O)ccc1OCc1ccccc1 (stereo not drawn) [Compound 268]	4 (≈ 1.96 µM)	2 (≈ 0.978 µM)	0.25 (≈ 0.122 µM)	2 (≈ 0.978 µM)	2 (≈ 0.978 µM)	4 (≈ 1.96 µM)	1 (≈ 0.489 µM)	1 (≈ 0.489 µM)	0.5 (≈ 0.244 µM)	4 (≈ 1.96 µM)	2 (≈ 0.978 µM)	2 (≈ 0.978 µM)	≤ 0.06	0.5 (≈ 0.244 µM)	1 (≈ 0.489 µM)	4 (≈ 1.96 µM)	> 64	> 64	1 (≈ 0.489 µM)	8 (≈ 3.91 µM)	MIC [21]: 4 µg/mL (≈ 1.96 µM); MIC [22]: ≤ 0.06 µg/mL; mean geometric MIC, Vancomycin Resistant Strains [23]: 6.7 µg/mL; mean geometric MIC, Vancomycin Sensitive Strains [24]: 0.87 µg/mL
